Source: ChEMBL document CHEMBL1201862, “PubChem BioAssay data set” (2004)
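Test compounds were applied to cells in 96-well plates for 48 hours at 5 doses. GI50 marks 50% less growth.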 Calls of active or inactive are those of the source. Rule as the data show it: active = GI50 up to about 1.1 µM and inactive = higher.

Columns and labels:
Assay in all cases: DTP human tumour cell line panel, 48 h
786-0 = system: 786-0
A498 = system: A498
A549 = system: A549
COLO 205 = system: COLO 205
HCT-116 = system: HCT-116
HL-60 = system: HL-60
K562 = system: K562
LOX IMVI = system: LOX IMVI
MOLT-4 = system: MOLT-4
Malme-3M = system: Malme-3M
NCI-H23 = system: NCI-H23
OVCAR-8 = system: OVCAR-8
PC-3 = system: PC-3
SF-539 = system: SF-539
SK-MEL-2 = system: SK-MEL-2
SNB-19 = system: SNB-19
U-251 = system: U-251
HOP-62 = system: HOP-62
Hs-578T = system: Hs-578T
MDA-MB-435 = system: MDA-MB-435

| SMILES | GI50 (786-0) | GI50 (A498) | GI50 (A549) | GI50 (COLO 205) | GI50 (HCT-116) | GI50 (HL-60) | GI50 (K562) | GI50 (LOX IMVI) | GI50 (MOLT-4) | GI50 (Malme-3M) | GI50 (NCI-H23) | GI50 (OVCAR-8) | GI50 (PC-3) | GI50 (SF-539) | GI50 (SK-MEL-2) | GI50 (SNB-19) | GI50 (U-251) | GI50 (HOP-62) | GI50 (Hs-578T) | GI50 (MDA-MB-435) |
| --- | --- | --- | --- | --- | --- | --- | --- | --- | --- | --- | --- | --- | --- | --- | --- | --- | --- | --- | --- | --- |
| CC(=O)OCc1cc(=O)n2c([nH]c3ccccc32)c1C#N | 40.6 µM (inactive) | 69.2 µM (inactive) | 51.9 µM (inactive) | 53.3 µM (inactive) | 51.3 µM (inactive) | 42.3 µM (inactive) | 65.9 µM (inactive) | 68.7 µM (inactive) | 47.1 µM (inactive) | 89.1 µM (inactive) | > 100 µM (inactive) | > 100 µM (inactive) | 40.6 µM (inactive) | > 100 µM (inactive) | 76.6 µM (inactive) | 80.2 µM (inactive) | 34 µM (inactive) | – | – | – |
| CN(C)c1ccc(-c2[nH]c(=O)c3ccccc3[n+]2C)cc1 | > 100 µM (inactive) | 99.1 µM (inactive) | > 100 µM (inactive) | 62.2 µM (inactive) | 93.8 µM (inactive) | 83.8 µM (inactive) | 58.6 µM (inactive) | – | 51.9 µM (inactive) | 47.6 µM (inactive) | 60 µM (inactive) | > 100 µM (inactive) | – | > 100 µM (inactive) | – | > 100 µM (inactive) | > 100 µM (inactive) | > 100 µM (inactive) | > 100 µM (inactive) | 63.8 µM (inactive) |
| CC(C)C[C@H](NC(=O)[C@H](Cc1ccccc1)NC(=O)c1cnccn1)B(O)O [BORTEZOMIB] | < 0.01 µM (active) | < 0.01 µM (active) | < 0.01 µM (active) | < 0.01 µM (active) | < 0.01 µM (active) | < 0.01 µM (active) | < 0.01 µM (active) | 0.01 µM (active) | < 0.01 µM (active) | < 0.01 µM (active) | < 0.01 µM (active) | < 0.01 µM (active) | < 0.01 µM (active) | < 0.01 µM (active) | 0.01 µM (active) | – | < 0.01 µM (active) | < 0.01 µM (active) | – | < 0.01 µM (active) |
| CSc1nc2c(=O)n(-c3ccccc3)c(=S)n(-c3ccccc3)c2s1 | 25.9 µM (inactive) | – | > 100 µM (inactive) | > 100 µM (inactive) | > 100 µM (inactive) | > 100 µM (inactive) | > 100 µM (inactive) | 82 µM (inactive) | 63.2 µM (inactive) | 64.1 µM (inactive) | > 100 µM (inactive) | > 100 µM (inactive) | > 100 µM (inactive) | 39.9 µM (inactive) | > 100 µM (inactive) | 14.2 µM (inactive) | 38.5 µM (inactive) | 42 µM (inactive) | 29.2 µM (inactive) | > 100 µM (inactive) |
| CC(c1ccccc1)N1CC(C)(c2ccccc2)N(O)C(c2ccccc2)C1C (stereo not drawn) | 5.92 µM (inactive) | 18 µM (inactive) | 7.01 µM (inactive) | 11.1 µM (inactive) | 3.38 µM (inactive) | 3.52 µM (inactive) | 7.28 µM (inactive) | 12.2 µM (inactive) | 3.47 µM (inactive) | 18.8 µM (inactive) | 8.04 µM (inactive) | 9.91 µM (inactive) | – | 5.73 µM (inactive) | 5.42 µM (inactive) | 5.92 µM (inactive) | 13.1 µM (inactive) | 15.5 µM (inactive) | – | – |
| O=C(O)c1ccccc1SCc1cccc2c(=O)c3ccc(Cl)cc3oc12 | 25.3 µM (inactive) | > 50 µM (inactive) | > 50 µM (inactive) | > 50 µM (inactive) | 36.1 µM (inactive) | 11 µM (inactive) | 27.7 µM (inactive) | > 50 µM (inactive) | > 50 µM (inactive) | 10.7 µM (inactive) | 35.3 µM (inactive) | > 50 µM (inactive) | 26.8 µM (inactive) | 19.5 µM (inactive) | 46.9 µM (inactive) | – | 17.5 µM (inactive) | 12.9 µM (inactive) | – | > 50 µM (inactive) |
| O=C(O)C1CCCCN1CCc1c[nH]c2ccccc12 (stereo not drawn) | > 100 µM (inactive) | – | > 100 µM (inactive) | > 100 µM (inactive) | > 100 µM (inactive) | > 100 µM (inactive) | > 100 µM (inactive) | > 100 µM (inactive) | > 100 µM (inactive) | > 100 µM (inactive) | > 100 µM (inactive) | > 100 µM (inactive) | > 100 µM (inactive) | > 100 µM (inactive) | > 100 µM (inactive) | > 100 µM (inactive) | > 100 µM (inactive) | > 100 µM (inactive) | – | > 100 µM (inactive) |
| Clc1cc2nc(C3CCCO3)[nH]c2cc1Cl (stereo not drawn) | > 100 µM (inactive) | – | 54.6 µM (inactive) | 37.1 µM (inactive) | 39.2 µM (inactive) | 37.7 µM (inactive) | 38.5 µM (inactive) | 35.4 µM (inactive) | 52 µM (inactive) | > 100 µM (inactive) | 34.4 µM (inactive) | 57.9 µM (inactive) | 42.7 µM (inactive) | > 100 µM (inactive) | > 100 µM (inactive) | > 100 µM (inactive) | > 100 µM (inactive) | > 100 µM (inactive) | 40.9 µM (inactive) | 28.2 µM (inactive) |
